Laboratory results as given in US10632148B2, “Growth control of oral and superficial organisms using gallium compounds” (MOUNT SINAI SCHOOL OF MEDICINE, priority 2005, dated 2020).

Columns and labels:
Candida albicans = test: Susceptibility to gallium nitrate, MIC/MBC, microdilution broth method; assay type: cell-based, Candida albicans ATCC 10231; details: 27° C. for 48 hours, 9.75 × 10^5 CFU/ml
Procedure: (§1) Susceptibility of various microorganisms to gallium was tested by determining the minimum inhibitory concentration (MIC) and minimum bactericidal concentration (MBC) for each microorganism using gallium nitrate. In general, MIC is determined by (i) mixing a series of broths, each containing a standard number of microorganisms, with serially diluted solutions of the gallium compound; and (ii) determining the MIC, after incubation, that is the lowest concentration of the gallium compound that has inhibited the growth of the microorganism. The lower the MIC, the more susceptible the organism is. The MBC is determined by subculturing an aliquot of each sample from the MIC test on an appropriate agar plate containing no gallium compound. After incubation, the MBC is determined to be the lowest concentration of the gallium compound at which no growth is observed.
(§2) Specifically, in the present experiment, two grams of gallium nitrate powder were dissolved in 10 ml of filter-sterilized deionized water and the resulting 20% (w/v) (i.e., 200 mg/ml) solution was once again filter-sterilized. […]
(§3) The growth of the microorganisms were determined by visual observation of turbidity in the samples. […]

Porphyromonas gingivalis = assay type: cell-based, Porphyromonas gingivalis ATCC 33277
[1] = test system: Methicillin-resistant Staphylococcus aureus (MRSA); test: Susceptibility to gallium nitrate, MIC/MBC, macrodilution broth method; assay type: cell-based, Staphylococcus aureus ATCC 33592; details: Muller Hinton broth, tryptic soy agar with 5% sheep blood, 36° C. for 48 hours, 5.2 × 10^5 CFU/ml
[2] = healthy adults, intravenous infusion for at least 7 days; cited from earlier work
Campylobacter jejuni = test: Susceptibility to gallium nitrate, MIC/MBC, microdilution broth method; assay type: cell-based, Campylobacter jejuni ATCC 29428; details: Muller Hinton broth, tryptic soy agar with 5% sheep blood, 36° C. for 48 hours, 4.9 × 10^5 CFU/ml
Procedure: as §1, §2, §3

Pseudomonas aeruginosa = test: Susceptibility to gallium nitrate, MIC/MBC, macrodilution broth method; assay type: cell-based, Pseudomonas aeruginosa ATCC 15442; details: Muller Hinton broth, tryptic soy agar with 5% sheep blood, 36° C. for 48 hours, 7.6 × 10^5 CFU/ml
Escherichia coli O157:H7 = test: Susceptibility to gallium nitrate, MIC/MBC, microdilution broth method; assay type: cell-based, Escherichia coli O157:H7 ATCC 35150; details: Muller Hinton broth, tryptic soy agar with 5% sheep blood, 36° C. for 48 hours, 1.38 × 10^6 CFU/ml
Procedure: as §1, §2, §3

Streptococcus mutans = test: as above; assay type: cell-based, Streptococcus mutans ATCC 25175; details: Brain Heart Infusion broth, blood agar, 36° C. for 48 hours, 4.1 × 10^6 CFU/ml
Procedure: as §1, §2, §3

Salmonella typhi = test: Susceptibility to gallium nitrate, MIC/MBC, macrodilution broth method; assay type: cell-based, Salmonella typhi ATCC 6539; details: Muller Hinton broth, tryptic soy agar with 5% sheep blood, 36° C. for 48 hours, 8.3 × 10^5 CFU/ml
[3] = test system: Vancomycin-resistant Enterococcus faecalis (VRE); test: as above; assay type: cell-based, Enterococcus faecalis ATCC 51575; details: Muller Hinton broth, tryptic soy agar with 5% sheep blood, 36° C. for 48 hours, 3.9 × 10^5 CFU/ml

In the case of `O=[N+]([O-])[O-].O=[N+]([O-])[O-].O=[N+]([O-])[O-].[Ga+3]` [gallium nitrate], the MIC (Candida albicans; Sabouraud Dextrose broth) is reported as 10000 µg/mL, the MBC (Candida albicans; Sabouraud dextrose agar) is reported as greater than 100000 µg/mL and the MBC (Porphyromonas gingivalis) is reported as less than 780 µg/mL. The MBC [1] was 12500 µg/mL, the tolerated dose [2] was “at least 200 mg/m^2/day” and the MBC (Campylobacter jejuni) was less than 780 µg/mL. For the same compound, the MBC (Pseudomonas aeruginosa) was 6250 µg/mL, the MBC (Escherichia coli O157:H7) was 6250 µg/mL and the MBC (Streptococcus mutans) was 5000 µg/mL. For the same compound, the MBC (Salmonella typhi) was 6250 µg/mL and the MBC [3] was 25000 µg/mL.
